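The compound was tested at five concentrations on cells cultured in 96-well plates, with a 48-hour exposure period. GI50 = concentration required for 50% inhibition of growth.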 Calls of active or inactive are those of the source. Rule as the data show it: active = GI50 up to about 1.1 µM and inactive = higher.
Tests used:
Test in all cases: NCI tumour cell line growth inhibition, 48 h
SR = tested on: SR
UACC-62 = tested on: UACC-62
COLO 205 = tested on: COLO 205
HOP-92 = tested on: HOP-92
SF-295 = tested on: SF-295
HL-60 = tested on: HL-60
Hs-578T = tested on: Hs-578T
Malme-3M = tested on: Malme-3M
TK-10 = tested on: TK-10
DU-145 = tested on: DU-145
SK-MEL-5 = tested on: SK-MEL-5
OVCAR-5 = tested on: OVCAR-5
UO-31 = tested on: UO-31
MDA-MB-231 = tested on: MDA-MB-231
NCI-H226 = tested on: NCI-H226
M14 = tested on: M14
HOP-62 = tested on: HOP-62
PC-3 = tested on: PC-3
A498 = tested on: A498

Structure (SMILES)	GI50 (SR)	GI50 (UACC-62)	GI50 (COLO 205)	GI50 (HOP-92)	GI50 (SF-295)	GI50 (HL-60)	GI50 (Hs-578T)	GI50 (Malme-3M)	GI50 (TK-10)	GI50 (DU-145)	GI50 (SK-MEL-5)	GI50 (OVCAR-5)	GI50 (UO-31)	GI50 (MDA-MB-231)	GI50 (NCI-H226)	GI50 (M14)	GI50 (HOP-62)	GI50 (PC-3)	GI50 (A498)
Nc1c2ccccc2nc2ccc3c(=O)cc(-c4ccccc4)oc3c12	0.393 µM (active)	1.6 µM (inactive)	0.234 µM (active)	1.24 µM (inactive)	0.719 µM (active)	0.977 µM (active)	1.9 µM (inactive)	1.66 µM (inactive)	2.07 µM (inactive)	1.75 µM (inactive)	1.52 µM (inactive)	1.5 µM (inactive)	1.5 µM (inactive)	1.14 µM (inactive)	1.31 µM (inactive)	1.21 µM (inactive)	0.94 µM (active)	1.26 µM (inactive)	
COC(=O)CCC1(C)C2CCC1(C)/C(=N/O)C2 (stereo not given)		> 100 µM (inactive)	> 100 µM (inactive)		> 100 µM (inactive)		> 100 µM (inactive)	> 100 µM (inactive)	> 100 µM (inactive)	> 100 µM (inactive)	> 100 µM (inactive)	> 100 µM (inactive)	> 100 µM (inactive)	> 100 µM (inactive)	> 100 µM (inactive)	> 100 µM (inactive)	> 100 µM (inactive)	> 100 µM (inactive)	
COc1cc(N(CCC#N)CCC#N)ccc1/C=N\NC(=O)c1ccc(C)cc1		> 100 µM (inactive)	> 100 µM (inactive)	> 100 µM (inactive)	> 100 µM (inactive)	> 100 µM (inactive)	> 100 µM (inactive)	> 100 µM (inactive)	> 100 µM (inactive)	> 100 µM (inactive)	> 100 µM (inactive)	> 100 µM (inactive)		18.2 µM (inactive)	> 100 µM (inactive)	> 100 µM (inactive)	> 100 µM (inactive)	17.3 µM (inactive)	
CC(=O)OCCOCn1c2c(c(=S)[nH]c1=O)CCC2	> 100 µM (inactive)		> 100 µM (inactive)	> 100 µM (inactive)	> 100 µM (inactive)	> 100 µM (inactive)	> 100 µM (inactive)	> 100 µM (inactive)	> 100 µM (inactive)	> 100 µM (inactive)	> 100 µM (inactive)	> 100 µM (inactive)	> 100 µM (inactive)	> 100 µM (inactive)	> 100 µM (inactive)	> 100 µM (inactive)	> 100 µM (inactive)	> 100 µM (inactive)	
O=C1C(Sc2ccc3ccccc3c2)=C(Sc2ccc3ccccc3c2)C(=O)c2ccccc21		3.24 µM (inactive)	3.95 µM (inactive)	6.64 µM (inactive)		1.1 µM (active)	8.57 µM (inactive)			22 µM (inactive)	2.81 µM (inactive)	11.3 µM (inactive)	3.95 µM (inactive)	4.59 µM (inactive)	13.9 µM (inactive)	11.5 µM (inactive)	13.1 µM (inactive)	14.4 µM (inactive)	14.8 µM (inactive)
COc1cccc2c3ccccc3c3nc[nH]c3c12	14.6 µM (inactive)	22.8 µM (inactive)	17.9 µM (inactive)	27.3 µM (inactive)	16 µM (inactive)		< 0.01 µM (active)	36.1 µM (inactive)	26.1 µM (inactive)	46.9 µM (inactive)	16.7 µM (inactive)	55.3 µM (inactive)	41.7 µM (inactive)	25.4 µM (inactive)	37.8 µM (inactive)	28.6 µM (inactive)	54.3 µM (inactive)	30.8 µM (inactive)	23.1 µM (inactive)
COCCN(CCNC(=O)c1cccc2c(N)c3cccc(C)c3nc12)CCOC		2.94 µM (inactive)	0.436 µM (active)	6.5 µM (inactive)	2.77 µM (inactive)	0.794 µM (active)	1.87 µM (inactive)	0.695 µM (active)	1.49 µM (inactive)	1.28 µM (inactive)	0.951 µM (active)	2.2 µM (inactive)		0.24 µM (active)	1.03 µM (active)	1.37 µM (inactive)	0.948 µM (active)	1 µM (active)	2.78 µM (inactive)
CSCCC(NC(=O)C(Cc1c[nH]c2ccccc12)NC(=O)CCNC(=O)OC(C)(C)C)C(=O)NC(CC(=O)O)C(=O)NC(Cc1ccccc1)C(N)=O (stereo not given)		> 50 µM (inactive)	> 50 µM (inactive)	> 50 µM (inactive)	> 50 µM (inactive)	> 50 µM (inactive)	> 50 µM (inactive)		> 50 µM (inactive)	> 50 µM (inactive)	> 50 µM (inactive)	> 50 µM (inactive)		> 50 µM (inactive)	> 50 µM (inactive)	> 50 µM (inactive)	> 50 µM (inactive)	> 50 µM (inactive)	> 50 µM (inactive)
N#CCCN(C(=O)Nc1ccc(NC(=O)N(CCC#N)c2ccccc2)cc1)c1ccccc1	> 100 µM (inactive)	> 100 µM (inactive)	> 100 µM (inactive)		> 100 µM (inactive)	> 100 µM (inactive)	> 100 µM (inactive)	> 100 µM (inactive)		> 100 µM (inactive)	> 100 µM (inactive)	> 100 µM (inactive)	> 100 µM (inactive)	> 100 µM (inactive)	> 100 µM (inactive)	> 100 µM (inactive)	> 100 µM (inactive)	> 100 µM (inactive)	> 100 µM (inactive)
CSc1ccc(/C=C2\CNC/C(=C\c3ccc(SC)cc3)C2=O)cc1		> 87.5 µM (inactive)	> 371 µM (inactive)	65.5 µM (inactive)	29.4 µM (inactive)	> 74.3 µM (inactive)	64.1 µM (inactive)	> 199 µM (inactive)	41.9 µM (inactive)	> 371 µM (inactive)	> 371 µM (inactive)	> 284 µM (inactive)	> 252 µM (inactive)	86.9 µM (inactive)	40.6 µM (inactive)	> 206 µM (inactive)	84.5 µM (inactive)	> 100 µM (inactive)	
CCC#CCCCCCCCCC(F)C(=O)O (stereo not given)			> 100 µM (inactive)	> 100 µM (inactive)	> 100 µM (inactive)	> 100 µM (inactive)	> 100 µM (inactive)	> 100 µM (inactive)	> 100 µM (inactive)	> 100 µM (inactive)	> 100 µM (inactive)	> 100 µM (inactive)	> 100 µM (inactive)	> 100 µM (inactive)	> 100 µM (inactive)	> 100 µM (inactive)	> 100 µM (inactive)	> 100 µM (inactive)	> 100 µM (inactive)
Cc1ccn2c(=O)cc(CN3CCOCC3)nc2c1	> 100 µM (inactive)	58.1 µM (inactive)	> 100 µM (inactive)	> 100 µM (inactive)	> 100 µM (inactive)	> 100 µM (inactive)	> 100 µM (inactive)	> 100 µM (inactive)	> 100 µM (inactive)	> 100 µM (inactive)		> 100 µM (inactive)	> 100 µM (inactive)	> 100 µM (inactive)	> 100 µM (inactive)	> 100 µM (inactive)	> 100 µM (inactive)	> 100 µM (inactive)	
Nc1nc(N)c2c3c(cnc2n1)CC(c1ccccc1)CC3 (stereo not given)	10.6 µM (inactive)	1.11 µM (active)	35 µM (inactive)		10.1 µM (inactive)	6.43 µM (inactive)	30.2 µM (inactive)	31.5 µM (inactive)	21.7 µM (inactive)	25.4 µM (inactive)	1.01 µM (active)	14.3 µM (inactive)		21.4 µM (inactive)	93.1 µM (inactive)	3.24 µM (inactive)	21.6 µM (inactive)	21.9 µM (inactive)	24.8 µM (inactive)
Nc1ccc(/N=N/c2c(S(=O)(=O)O)cc3ccccc3c2S(=O)(=O)O)cc1	> 100 µM (inactive)	> 100 µM (inactive)		> 100 µM (inactive)	> 100 µM (inactive)		> 100 µM (inactive)	> 100 µM (inactive)	> 100 µM (inactive)	> 100 µM (inactive)	> 100 µM (inactive)	> 100 µM (inactive)	> 100 µM (inactive)	> 100 µM (inactive)	> 100 µM (inactive)	> 100 µM (inactive)	> 100 µM (inactive)	> 100 µM (inactive)	> 100 µM (inactive)
NC(=O)CNC(=O)[C@@H]1CC(OCCC(=O)O)CN1C(=O)C1CCCN1C(=O)OCc1ccccc1 (stereo not given in full)	> 100 µM (inactive)	> 100 µM (inactive)	> 100 µM (inactive)		> 100 µM (inactive)	> 100 µM (inactive)	> 100 µM (inactive)	> 100 µM (inactive)	> 100 µM (inactive)	> 100 µM (inactive)	> 100 µM (inactive)	> 100 µM (inactive)	> 100 µM (inactive)	> 100 µM (inactive)	> 100 µM (inactive)	> 100 µM (inactive)	> 100 µM (inactive)	> 100 µM (inactive)	> 100 µM (inactive)
COC1CC(OC2C(C)OC(OC3C(C)OC(OC4C(C)OC(O[C@H]5CC[C@@]6(C)C(=CC[C@]7(O)[C@@H]6C[C@@H](O)[C@@]6(C)[C@]7(O)CC[C@@]6(O)C(C)=O)C5)CC4OC)CC3OC)CC2OC)OC(C)C1O (stereo not given in full)	> 12.5 µM (inactive)	> 12.5 µM (inactive)	> 12.5 µM (inactive)	> 12.5 µM (inactive)	> 12.5 µM (inactive)	> 12.5 µM (inactive)	> 12.5 µM (inactive)	> 12.5 µM (inactive)	> 12.5 µM (inactive)	> 12.5 µM (inactive)	> 12.5 µM (inactive)	> 12.5 µM (inactive)	12.4 µM (inactive)	> 12.5 µM (inactive)	> 12.5 µM (inactive)	> 12.5 µM (inactive)	> 12.5 µM (inactive)	> 12.5 µM (inactive)	

Source: ChEMBL document CHEMBL1201862, “PubChem BioAssay data set” (2004)
